Test results published in patent publication US20100298141A1, “SUBSTITUTED PYRIDINE N-OXIDE HERBICIDES” (E. I. DU PONT DE NEMOURS AND COMPANY, priority 2007, published 2010).

Columns and labels:
soybean = test: Test C pre-/postemergence test; type: in vivo, Glycine max
How it was run: (§1)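 Seeds were planted and treated preemergence with test chemical in a non-phytotoxic solvent mixture containing surfactant. Postemergence applications of the same formulation went onto plants 2 to 18 cm tall (1- to 4-leaf stage). A dash marks no test result.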

downy brome = test: Test C pre-/postemergence test; type: in vivo, Bromus tectorum
How it was run: as §1

crabgrass = test: Test A pre-/postemergence greenhouse test; type: in vivo, Digitaria sanguinalis; details: for Plant response rating, Crabgrass, Large: 0 to 100 scale where 0 is no effect and 100 is complete control; for Crabgrass, Large plant response rating: 0 to 100 scale
How it was run: (§2)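 Pots of loam–sand soil sown with the test species are sprayed preemergence on the soil surface; emerged seedlings (1–2 leaves, 2–10 cm) are sprayed postemergence at the same time. The vehicle is a non-phytotoxic solvent mixture with surfactant. Injury is scored visually after ~10 d in greenhouse.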

woolly cupgrass = test: Test C pre-/postemergence test; type: in vivo, Eriochloa villosa
How it was run: as §1

cocklebur = test: Test C pre-/postemergence test; type: in vivo, Xanthium strumarium
How it was run: as §1

morningglory [1] = test: Test C pre-/postemergence test; type: in vivo, Ipomoea coccinea
How it was run: as §1

yellow nutsedge = test: Test C pre-/postemergence test; type: in vivo, Cyperus esculentus
How it was run: as §1

umbrella sedge = test: Test C flooded paddy test; type: in vivo, Cyperus difformis; details: Flood
How it was run: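 Visual injury ratings against untreated controls, taken 13 to 15 days after compound was added to paddy water standing 3 cm above the soil.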

johnsongrass = test: Test C pre-/postemergence test; type: in vivo, Sorghum halepense
How it was run: as §1

lambsquarters = test: Test C pre-/postemergence test; type: in vivo, Chenopodium album
How it was run: as §1

giant foxtail [2] = test: Test C pre-/postemergence test; type: in vivo, Setaria faberii
How it was run: as §1

wheat = test: Test A pre-/postemergence greenhouse test; type: in vivo, Triticum aestivum; details: for Plant response rating, Wheat: 0 to 100 scale where 0 is no effect and 100 is complete control; for Wheat plant response rating: 0 to 100 scale
How it was run: as §2

common ragweed = test: Test C pre-/postemergence test; type: in vivo, Ambrosia elation
How it was run: as §1

morningglory [3] = test: Test A pre-/postemergence greenhouse test; type: in vivo, Ipomoea spp.; details: for Plant response rating, Morningglory: 0 to 100 scale where 0 is no effect and 100 is complete control; for Morningglory plant response rating: 0 to 100 scale
How it was run: as §2

Goosegrass = test: Test C pre-/postemergence test; type: in vivo, Eleusin indica
How it was run: as §1

corn = test: Test C pre-/postemergence test; type: in vivo, Zea mays
How it was run: as §1

giant foxtail [4] = test: Test A pre-/postemergence greenhouse test; type: in vivo, Setaria faberi; details: for Plant response rating, Foxtail, Giant: 0 to 100 scale where 0 is no effect and 100 is complete control; for Foxtail, Giant plant response rating: 0 to 100 scale
How it was run: as §2

[5] = 62 g ai/ha, Preemergence, scale 0 to 100
[6] = 125 g ai/ha, preemergence, scale 0 (no effect) to 100 (complete control)
[7] = Postemergence, 125 g ai/ha, scale 0 to 100, 0 no effect, 100 complete control
[8] = Postemergence, 250 g ai/ha, scale 0 to 100, 0 no effect, 100 complete control
[9] = Preemergence, 31 g ai/ha, scale 0 to 100 (0 no effect, 100 complete control)
[10] = preemergence, 250 g ai/ha, scale 0 (no effect) to 100 (complete control)
[11] = Postemergence, 62 g ai/ha, scale 0 to 100, 0 no effect, 100 complete control
[12] = Postemergence, 500 g ai/ha, 0 is no effect, 100 is complete control
[13] = Preemergence, 125 g ai/ha, 0 no effect, 100 complete control

Cn1nc(C(F)(F)F)c(C[S+]([O-])c2ccc(F)c[n+]2[O-])c1OC(F)F (stereo not drawn) [Compound 58]
Soybean plant response rating (soybean; [5]): 100 | Soybean plant response rating (soybean; [6]): 100 | Plant response rating (0 to 100), Soybean (soybean; Postemergence, 31 g ai/ha): 20 | Plant response rating (0 to 100), Soybean (soybean; Postemergence, 62 g ai/ha): 40 | Plant response rating, Soybean (soybean; [7]): 60 | Plant response rating, Soybean (soybean; [8]): 65 | Plant response rating, Soybean (soybean; [9]): 0 | Soybean plant response rating (soybean; [10]): 100 | Bromegrass, Downy plant response rating (downy brome; [5]): 60 | Bromegrass, Downy plant response rating (downy brome; [6]): 100 | Plant response rating (0 to 100), Bromegrass, Downy (downy brome; Postemergence, 31 g ai/ha): 0 | Plant response rating, Bromegrass, Downy (downy brome; [11]): 0 | Plant response rating, Bromegrass, Downy (downy brome; [7]): 0 | Plant response rating, Bromegrass, Downy (downy brome; [8]): 60 | Plant response rating, Bromegrass, Downy (downy brome; [9]): 0 | Bromegrass, Downy plant response rating (downy brome; [10]): 100 | Plant response rating, Crabgrass, Large (crabgrass; Postemergence, 125 g ai/ha): 80 | Crabgrass, Large plant response rating (crabgrass; [12]): 90 | Crabgrass, Large plant response rating (crabgrass; [13]): 80 | Plant response rating, Crabgrass, Large (crabgrass; Preemergence, 500 g ai/ha): 100 | Cupgrass, Woolly plant response rating (woolly cupgrass; [5]): 60 | Cupgrass, Woolly plant response rating (woolly cupgrass; [6]): 95 | Plant response rating (0 to 100), Cupgrass, Woolly (woolly cupgrass; Postemergence, 31 g ai/ha): 0 | Plant response rating, Cupgrass, Woolly (woolly cupgrass; [11]): 0 | Plant response rating, Cupgrass, Woolly (woolly cupgrass; [7]): 10 | Plant response rating, Cupgrass, Woolly (woolly cupgrass; [8]): 80 | Plant response rating, Cupgrass, Woolly (woolly cupgrass; [9]): 10 | Cupgrass, Woolly plant response rating (woolly cupgrass; [10]): 100 | Cocklebur plant response rating (cocklebur; [5]): 0 | Cocklebur plant response rating (cocklebur; [6]): 0 | Plant response rating (0 to 100), Cocklebur (cocklebur; Postemergence, 31 g ai/ha): 0 | Plant response rating, Cocklebur (cocklebur; [11]): 0 | Plant response rating, Cocklebur (cocklebur; [7]): 0 | Plant response rating, Cocklebur (cocklebur; [8]): 0 | Plant response rating, Cocklebur (cocklebur; [9]): 0 | Cocklebur plant response rating (cocklebur; [10]): 40 | Morningglory plant response rating (morningglory [1]; [5]): 98 | Morningglory plant response rating (morningglory [1]; [6]): 98 | Plant response rating (0 to 100), Morningglory (morningglory [1]; Postemergence, 31 g ai/ha): 0 | Plant response rating, Morningglory (morningglory [1]; [11]): 0 | Plant response rating, Morningglory (morningglory [1]; [7]): 5 | Plant response rating, Morningglory (morningglory [1]; [8]): 5 | Plant response rating, Morningglory (morningglory [1]; [9]): 80 | Morningglory plant response rating (morningglory [1]; [10]): 100 | Nutsedge, Yellow plant response rating (yellow nutsedge; [5]): 40 | Nutsedge, Yellow plant response rating (yellow nutsedge; [6]): 70 | Plant response rating (0 to 100), Nutsedge, Yellow (yellow nutsedge; Postemergence, 31 g ai/ha): 0 | Plant response rating, Nutsedge, Yellow (yellow nutsedge; [11]): 0 | Plant response rating, Nutsedge, Yellow (yellow nutsedge; [7]): 0 | Plant response rating, Nutsedge, Yellow (yellow nutsedge; [8]): 50 | Plant response rating, Nutsedge, Yellow (yellow nutsedge; [9]): 0 | Nutsedge, Yellow plant response rating (yellow nutsedge; [10]): 98 | Plant response rating, Sedge, Umbrella (umbrella sedge; 62 g ai/ha, scale 0 to 100 (0 no effect, 100 complete control)): 80 | Plant response rating, Sedge, Umbrella (umbrella sedge; 250 g ai/ha, scale 0 to 100, 0 no effect, 100 complete control, 13 to 15 days): 80 | Johnsongrass plant response rating (johnsongrass; [5]): 95 | Johnsongrass plant response rating (johnsongrass; [6]): 100 | Plant response rating (0 to 100), Johnsongrass (johnsongrass; Postemergence, 31 g ai/ha): 0 | Plant response rating, Johnsongrass (johnsongrass; [11]): 0 | Plant response rating, Johnsongrass (johnsongrass; [7]): 10 | Plant response rating, Johnsongrass (johnsongrass; [8]): 60 | Plant response rating, Johnsongrass (johnsongrass; [9]): 85 | Johnsongrass plant response rating (johnsongrass; [10]): 100 | Lambsquarters plant response rating (lambsquarters; [5]): 100 | Lambsquarters plant response rating (lambsquarters; [6]): 100 | Plant response rating (0 to 100), Lambsquarters (lambsquarters; Postemergence, 31 g ai/ha): 0 | Plant response rating, Lambsquarters (lambsquarters; [11]): 0 | Plant response rating, Lambsquarters (lambsquarters; [7]): 0 | Plant response rating, Lambsquarters (lambsquarters; [8]): 30 | Plant response rating, Lambsquarters (lambsquarters; [9]): 70 | Lambsquarters plant response rating (lambsquarters; [10]): 100 | Foxtail, Giant plant response rating (giant foxtail [2]; [5]): 100 | Foxtail, Giant plant response rating (giant foxtail [2]; [6]): 100 | Plant response rating (0 to 100), Foxtail, Giant (giant foxtail [2]; Postemergence, 31 g ai/ha): 0 | Plant response rating, Foxtail, Giant (giant foxtail [2]; [11]): 10 | Plant response rating, Foxtail, Giant (giant foxtail [2]; [7]): 40 | Plant response rating, Foxtail, Giant (giant foxtail [2]; [8]): 60 | Plant response rating, Foxtail, Giant (giant foxtail [2]; [9]): 40 | Foxtail, Giant plant response rating (giant foxtail [2]; [10]): 100 | Plant response rating, Wheat (wheat; Postemergence, 125 g ai/ha): 60 | Wheat plant response rating (wheat; [12]): 70 | Wheat plant response rating (wheat; [13]): 60 | Plant response rating, Wheat (wheat; Preemergence, 500 g ai/ha): 100 | Ragweed plant response rating (common ragweed; [5]): 30 | Ragweed plant response rating (common ragweed; [6]): 55 | Plant response rating (0 to 100), Ragweed (common ragweed; Postemergence, 31 g ai/ha): 0 | Plant response rating (0 to 100), Ragweed (common ragweed; Postemergence, 62 g ai/ha): 0 | Plant response rating, Ragweed (common ragweed; [7]): 0 | Plant response rating, Ragweed (common ragweed; [8]): 30 | Plant response rating, Ragweed (common ragweed; [9]): 30 | Ragweed plant response rating (common ragweed; [10]): 100 | Plant response rating, Morningglory (morningglory [3]; Postemergence, 125 g ai/ha): 70 | Morningglory plant response rating (morningglory [3]; [12]): 90 | Morningglory plant response rating (morningglory [3]; [13]): 60 | Plant response rating, Morningglory (morningglory [3]; Preemergence, 500 g ai/ha): 100 | Goosegrass plant response rating (Goosegrass; [5]): 90 | Goosegrass plant response rating (Goosegrass; [6]): 100 | Plant response rating (0 to 100), Goosegrass (Goosegrass; Postemergence, 31 g ai/ha): 0 | Plant response rating, Goosegrass (Goosegrass; [11]): 0 | Plant response rating, Goosegrass (Goosegrass; [7]): 5 | Plant response rating, Goosegrass (Goosegrass; [8]): 60 | Plant response rating, Goosegrass (Goosegrass; [9]): 80 | Goosegrass plant response rating (Goosegrass; [10]): 100 | Corn plant response rating (corn; [5]): 100 | Corn plant response rating (corn; [6]): 100 | Plant response rating (0 to 100), Corn (corn; Postemergence, 31 g ai/ha): 0 | Plant response rating, Corn (corn; [11]): 0 | Plant response rating, Corn (corn; [7]): 0 | Plant response rating, Corn (corn; [8]): 0 | Plant response rating, Corn (corn; [9]): 75 | Corn plant response rating (corn; [10]): 100 | Plant response rating, Foxtail, Giant (giant foxtail [4]; Postemergence, 125 g ai/ha): 90 | Foxtail, Giant plant response rating (giant foxtail [4]; [12]): 90 | Foxtail, Giant plant response rating (giant foxtail [4]; [13]): 100 | Plant response rating, Foxtail, Giant (giant foxtail [4]; Preemergence, 500 g ai/ha): 100
